From publication PMC7694773, “Synthesis, 3D-QSAR, and Molecular Modeling Studies of Triazole Bearing Compounds as a Promising Scaffold for Cyclooxygenase-2 Inhibition” (Pharmaceuticals, 2020)
Values joined by “and” are separate entries in the source; they are usually repeats but may differ in a detail not shown here. Equal values may be shown once. Read-outs that look alike come from different tables or passages of the source.

How the values were obtained:
bovine COX-1 = biological target: T1, bovine COX-1 (Ovis aries, UniProt P05979); assay: In vitro COX-1 inhibition, enzyme immunoassay kit (Cayman item no. 560131); type: biochemical; conditions: mean of two determinations
T1 construct: purchased Cayman Chemical 560131
T1 sequence (P05979 25-600): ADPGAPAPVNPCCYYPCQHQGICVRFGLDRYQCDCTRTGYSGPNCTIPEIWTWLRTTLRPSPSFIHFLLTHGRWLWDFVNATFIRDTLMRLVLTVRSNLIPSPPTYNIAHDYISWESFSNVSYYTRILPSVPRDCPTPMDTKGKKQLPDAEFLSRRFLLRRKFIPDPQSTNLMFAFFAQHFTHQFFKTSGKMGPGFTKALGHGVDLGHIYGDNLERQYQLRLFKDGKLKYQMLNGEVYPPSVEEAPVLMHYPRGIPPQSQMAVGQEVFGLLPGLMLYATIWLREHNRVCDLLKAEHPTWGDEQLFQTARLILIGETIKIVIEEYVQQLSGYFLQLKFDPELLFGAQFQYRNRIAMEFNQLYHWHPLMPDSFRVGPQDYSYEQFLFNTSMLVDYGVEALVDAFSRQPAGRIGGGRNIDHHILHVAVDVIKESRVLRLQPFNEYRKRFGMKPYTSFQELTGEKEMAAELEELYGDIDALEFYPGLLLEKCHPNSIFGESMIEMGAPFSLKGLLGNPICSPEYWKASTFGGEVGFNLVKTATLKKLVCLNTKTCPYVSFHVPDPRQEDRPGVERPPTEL
Source text: (§1) The in vitro COX-1/COX-2 isozyme inhibition studies measure the ability of tested compounds to inhibit bovine COX-1 and human recombinant COX-2 using an enzyme immunoassay (COX inhibitor screening assay kit, item no. 560131) according to the manufacturer’s instructions. […].

egg albumin = biological target: T2, egg albumin (Gallus gallus, UniProt P01012); assay: In situ anti-inflammatory assay: inhibition of protein (albumin) denaturation
T2 sequence (P01012 1-386): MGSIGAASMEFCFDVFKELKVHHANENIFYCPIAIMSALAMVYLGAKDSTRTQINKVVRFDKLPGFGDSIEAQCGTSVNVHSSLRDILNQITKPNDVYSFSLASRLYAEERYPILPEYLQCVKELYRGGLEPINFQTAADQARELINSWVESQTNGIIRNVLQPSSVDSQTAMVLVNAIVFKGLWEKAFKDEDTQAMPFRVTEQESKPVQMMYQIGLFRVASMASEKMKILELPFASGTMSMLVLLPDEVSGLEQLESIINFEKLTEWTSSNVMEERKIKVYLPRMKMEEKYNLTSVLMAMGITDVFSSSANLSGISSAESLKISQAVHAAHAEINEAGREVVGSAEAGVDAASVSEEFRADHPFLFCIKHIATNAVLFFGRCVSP
Method: Protein denaturation is used for the evaluation of anti-inflammatory activity. In this methodology, generally, tertiary and secondary protein structures will typically be destroyed by the application of an external molecule or stress. The biological function of most bio-proteins is lost if it is denatured. It is well reported that a basis of inflammation is denaturation of protein.
The reaction mixture is molecules with serial dilutions (1000, 100, 10, 1, 0.1 µM), phosphate buffered saline (PBS; pH 6.4), and egg albumin. The control used was double distilled water (equal volume). […] After attaining ambient temperature, the absorbance of samples was measured spectrophotometrically at 660 nm using vehicle as blank. […] The experiment was performed in triplicate. Percent inhibition of protein denaturation was calculated using the Equation Inhibition (%) of protein denaturation inhibition (%) = (AC − AS)/AC × 100 where AC: absorbance of control, AS: absorbance of sample.

human recombinant COX-2 = biological target: T3, human recombinant COX-2 (Homo sapiens, UniProt P35354); assay: In vitro COX-2 inhibition, enzyme immunoassay kit (Cayman item no. 560131); type: biochemical
T3 construct: purchased Cayman Chemical 560131
T3 sequence (P35354 18-604): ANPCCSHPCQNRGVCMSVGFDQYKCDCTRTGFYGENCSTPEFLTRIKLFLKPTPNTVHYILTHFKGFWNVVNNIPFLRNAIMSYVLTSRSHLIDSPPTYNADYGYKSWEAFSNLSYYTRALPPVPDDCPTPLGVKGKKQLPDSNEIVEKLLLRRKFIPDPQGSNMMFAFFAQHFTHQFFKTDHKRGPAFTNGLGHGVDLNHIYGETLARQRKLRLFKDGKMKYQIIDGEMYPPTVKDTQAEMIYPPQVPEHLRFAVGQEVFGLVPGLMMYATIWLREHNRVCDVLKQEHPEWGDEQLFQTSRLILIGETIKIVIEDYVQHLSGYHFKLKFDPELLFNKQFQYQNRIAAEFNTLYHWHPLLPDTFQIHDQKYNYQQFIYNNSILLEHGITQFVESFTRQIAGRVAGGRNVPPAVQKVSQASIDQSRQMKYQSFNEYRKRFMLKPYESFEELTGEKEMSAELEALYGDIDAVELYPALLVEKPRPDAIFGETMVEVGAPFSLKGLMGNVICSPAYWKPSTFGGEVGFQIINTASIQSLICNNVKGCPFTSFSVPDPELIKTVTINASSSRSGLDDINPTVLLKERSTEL
Source text: as §1

melting point: 177 to 178 °C
IC50 (bovine COX-1): 7.97 µM
LogIC50 protein denaturation (egg albumin; GraphPad prism curve fit, IC50 in µM (Figure 3)): 0.9126
IC50 (egg albumin; non-linear regression, sigmoidal dose-inhibition fit, GraphPad prism): 8.17 µM and 8.18 µM
inhibition at 1000 µM (egg albumin; protein denaturation, conc. 1000 µM, three replicates, read-out: % of inhibition ± SEM at conc. 1000): 51%
% of inhibition ± SEM at conc. 0.1 (egg albumin; protein denaturation, conc. 0.1 (µM), three replicates): 8.97±0.97%
% of inhibition ± SEM at conc. 1 (egg albumin; protein denaturation, conc. 1 (µM), three replicates): 18.95±1.04%
% of inhibition ± SEM at conc. 10 (egg albumin; protein denaturation, conc. 10 (µM), three replicates): 31.86±0.96%
% of inhibition ± SEM at conc. 100 (egg albumin; protein denaturation, conc. 100 (µM), three replicates): 49.08±1.05%
COX-2 S.I. (selectivity index, COX-1 IC50/COX-2 IC50) (human recombinant COX-2): 53.1
IC50 (human recombinant COX-2; human recombinant COX-2, mean of two determinations, read-out: IC50 COX-2): 0.15 µM
IC50 (human recombinant COX-2; pIC50 = −Log (IC50) of the COX-2 IC50, read-out: Activity (experimental pIC50, COX-2) (converted)): 0.15 µM
SMILES: COc1ccc(C=Nn2c(S)nnc2COc2ccc3ccccc3c2)cc1 [Compound 9d, 4-((4-methoxybenzylidene)amino)-5-((naphthalen-2-yloxy)methyl)-4H-1,2,4-triazole-3-thiol]
